pIC50: −log10 of the molar value.
What was measured:
DLD-1 BRCA2 (-/-) = test: Combined use with combination drug, matrix study, Bliss Independence model (Cell Titer Glo, 7 days); assay type: cell-based; conditions: combination with Olaparib (PARP inhibitor)
Protocol: (§1) DLD-1 colorectal adenocarcinoma cells, DLD-1 BRCA2 (-/-) colorectal adenocarcinoma cells, SHP-77 human small cell lung cancer cells, NCI-H82 human small cell lung cancer cells, LNCAP prostate cancer cells, KURAMOCHI human ovarian cancer cells, A2780 human ovarian cancer cells, and NCI-H23 non-small cell lung cancer cells were cultured in a 1640 medium containing 10% fetal bovine serum. SKOV3 human ovarian cancer cells were cultured in a McCoy's 5A (modified) medium containing 10% fetal bovine serum. OVCAR3 ovarian cancer cells were cultured in a 1640 medium containing 20% fetal bovine serum and 10 µg/mL bovine insulin. MDA-MB-436 breast cancer cells (natural BRCA1 mutation) and A549 non-small cell lung cancer cells were cultured in a DMEM medium containing 10% fetal bovine serum. Capan-1 human pancreatic cancer cells (natural BRCA2 mutation) were cultured in an IMDM medium containing 20% fetal bovine serum. The cells were all cultured at 37 °C with 5% CO2. Cells at the logarithmic growth phase were available for the experiment.
(§2) 100 µL of the cell medium was added to rows A and H and columns 1 and 12 of a 96-well cell culture plate. Cultured cells were resuspended (adherent cells were digested with trypsin) and counted to give information on cell density and viability. The dilution ratio of the resuspended cells required for inoculating a fixed number of cells into 80 µL of the medium in each culture well was calculated based on the cell density information. After the resuspended cells were diluted with the corresponding medium, 80 µL of the diluted cells were transferred to columns 2-11 of rows B-G of a 96-well cell culture plate using an Eppendorf multi-channel pipette (60 wells in total for each plate). The cell culture plate was incubated overnight in an incubator at 37 °C with 5% CO2.
(§3) The test compound and the combination compound were dissolved in DMSO to give a 10 mM solution for later use. In the experiment, the compound was further diluted to the corresponding concentration according to the concentration designed in the experiment, and based on this concentration, serial gradient dilution was performed. Matrix study was performed at 8 or 7 dose concentrations of the test compound (the lowest dose concentration was 0, and other specific concentration values were shown in FIG. 1) and 7 or 8 dose concentrations of the combination compound (the lowest dose concentration was 0, and other specific concentration values were shown in FIG. 1). 10 µL of each of the diluted combination compound and test compound was added to the corresponding cell plate well, such that the final concentration of DMSO was 0.25%. The test compound and the cells were incubated in an incubator at 37 °C with 5% CO2 for another 7 days, Cell Titer Glo was added at 50 µL/well, and the luminescence value of each well was read using an Envision microplate reader.
(§4) The luminescence value of the well containing only the cell medium was taken as the background (RLUbackground, corresponding cell survival rate to be 0%), the cell well containing only 0.25% DMSO without the compound was taken as the maximum signal (RLUDMSO, corresponding cell survival rate to be 100%), and the luminescence values of the remaining wells containing cells and compounds at different concentrations were taken as RLUsample. The survival rate of each cell well was calculated as follows: Survival rate (%) = (RLUsample−RLUbackground)/(RLUDMSO−RLUbackground) × 100% [formula]
(§5) The interaction between drugs (synergistic, independent, or antagonistic) was statistically analyzed by the Bliss Independence model using Combenefit software (Bliss, C.I., Bacteriol. Rev., 1956, 20, 243-258). The model assumes that each drug acts independently. The theoretical expected action curve of the combination was calculated from the following equation: Bliss effect = effect A + effect B−effect A × effect B [formula] wherein effect A and effect B are the effects of drugs A and B alone at specific concentrations. […]

MDA-MB-436 = test: as above; assay type: cell-based; conditions: combination with Niraparib (PARP inhibitor)
Protocol: as §1, §2, §3, §4, §5

[1] = tested on: DLD-1 BRCA2 (-/-) cell line; test: Inhibition of tumor cell proliferation, 7 days, CTG; assay type: cell-based; conditions: Homo sapiens, DLD-1, 168 h, 7 days incubation
Protocol: (§6) Brief introduction to experimental principle: After the compound was co-incubated with tumor cells for 7 days, the ATP in viable cells was quantified using the CTG kit from Promega to reflect the effect of the compound on tumor cell proliferation.
(§7) Experimental methods: DLD-1 parent cells or DLD-1 BRCA2 (-/-) cells were diluted with an RPMI 1640 medium containing 10% FBS and then added to a 96-well plate (90 µL/well), with the number of cells being 600/well or 1200/well, respectively, and incubated overnight in an incubator at 37 °C with 5% CO2. The test compound was diluted to different concentrations with dimethyl sulfoxide (DMSO) and then added to a 96-well plate, such that, in the reaction system, the compound was serially diluted 4-fold from the final concentration of 25 µM. The concentration range of the compound was from 25 µM to 0.0004 µM, and the final concentration of DMSO was 0.25% v/v. After incubation for 7 days, 50 µL/well of CTG was added, and the mixture was incubated at room temperature for 10 min. The luminescence (Lum) signal value was read using an Envision microplate reader, and the inhibition rate and half inhibitory concentration (IC50) were calculated.
(§8) Inhibition rates were calculated and fitted using XLfit software to give the IC50 of the compound.
(§9) A Blank well and a DMSO well were set in the experiment. The blank well contained 100 µL of an RPMI Medium 1640 medium containing 10% FBS, and the inhibition rate of the compound on tumor cell growth was considered to be 100% under this condition. For the DMSO well, 0.25% v/v DMSO was added to the cell-containing well, and the inhibition rate of the compound on tumor cell growth was considered to be 0 under this condition. Inhibition rate = 100 × (Lummax−Lumcompound)/(Lummax−Lummin)% [formula] wherein Lummax refers to the luminescence signal value of the well containing cells and 0.25% v/v DMSO, and Lumcompound refers to the luminescence signal value of the well containing the compound and cells. Lummin refers to the luminescence signal value of the well containing the medium and 0.25% v/v DMSO.

DLD-1 parent cells = test: as above; assay type: cell-based; conditions: Homo sapiens, DLD-1, 168 h, 7 days incubation
Protocol: as §6, §7, §8, §9

[2] = biological target: T1, N-terminal active peptide segment of POLQ with ATPase activity (M1-N899) (Homo sapiens, UniProt O75417); test: POLQ enzyme activity inhibition experiment (ATPase, NADH oxidation-coupled, OD 340 nm); assay type: biochemical
T1 construct: N-terminal active peptide segment of POLQ with ATPase activity (M1-N899)
T1 sequence (O75417 1-899): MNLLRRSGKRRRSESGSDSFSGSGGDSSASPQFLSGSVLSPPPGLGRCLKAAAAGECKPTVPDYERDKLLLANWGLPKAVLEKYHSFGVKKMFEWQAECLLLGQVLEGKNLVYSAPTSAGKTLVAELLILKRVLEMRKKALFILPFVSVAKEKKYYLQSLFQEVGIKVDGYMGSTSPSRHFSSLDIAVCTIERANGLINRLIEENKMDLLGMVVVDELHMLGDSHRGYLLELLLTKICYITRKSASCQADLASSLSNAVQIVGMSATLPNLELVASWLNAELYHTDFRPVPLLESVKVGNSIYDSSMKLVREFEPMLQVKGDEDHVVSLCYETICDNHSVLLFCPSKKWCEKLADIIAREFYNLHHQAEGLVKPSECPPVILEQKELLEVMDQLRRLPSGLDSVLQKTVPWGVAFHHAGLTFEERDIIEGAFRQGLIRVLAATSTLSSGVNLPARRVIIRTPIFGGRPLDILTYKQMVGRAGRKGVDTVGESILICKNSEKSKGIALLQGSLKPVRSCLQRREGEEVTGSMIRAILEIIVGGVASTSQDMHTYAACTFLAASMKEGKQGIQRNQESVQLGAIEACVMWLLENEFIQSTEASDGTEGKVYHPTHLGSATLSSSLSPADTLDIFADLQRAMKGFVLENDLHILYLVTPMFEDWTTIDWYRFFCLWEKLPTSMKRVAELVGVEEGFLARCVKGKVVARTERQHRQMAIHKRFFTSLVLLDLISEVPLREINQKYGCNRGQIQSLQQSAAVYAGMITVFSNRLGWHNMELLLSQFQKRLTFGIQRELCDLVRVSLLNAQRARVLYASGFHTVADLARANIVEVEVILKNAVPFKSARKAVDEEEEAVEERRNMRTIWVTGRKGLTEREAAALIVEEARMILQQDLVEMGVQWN
Protocol: Brief introduction to experimental principle: After the N-terminal active peptide segment of POLQ with ATPase activity (M1-N899) is co-incubated with the compound, this peptide segment reacts with substrate dT50 under the action of ATP to generate ADP. The generated ADP then participates in the subsequent NADH oxidation-coupled enzymatic reaction, catalyzing the conversion of NADH to NAD^+. The reduction in the OD value of NADH at 340 nm was measured using the Envision microplate reader from Perkin Elmer to reflect enzyme activity. Experimental instruments: Labcyte Echo 650 pipetting system; Perkin Elmer Envision microplate reader; Eppendorf 5810R centrifuge; Boxun BSD-YX3400 thermostatic shaker.
Experimental methods: The POLQ enzyme was diluted to 100 nM with a reaction buffer (20 mM Tris HCl (pH 7.80), 80 mM KCl, 10 mM MgCl2, 1 mM DTT, 0.01% w/v bovine serum albumin, 0.01% v/v Tween-20, 5% v/v glycerol). The test compound was diluted to different concentrations with dimethyl sulfoxide (DMSO) using an Echo 650 pipetting system and transferred to a 384-well plate, 20 µL/well of 100 nM POLQ was added, and the mixture was incubated at room temperature for 15 min. A reaction mixture solution was prepared with the concentrations of each component in the reaction mixture solution as follows: 100 µM ATP, 300 nM dT50, 300 µM NADH, 6 mM PEP, 10 U/mL lactate dehydrogenase, and 20 U/mL pyruvate kinase. 20 µL/well of the reaction mixture solution was added to start the enzyme reaction. In the reaction system, the compound was serially diluted 3-fold from the final concentration of 10 µM, covering a concentration range from 10 µM to 0.0005 µM, and the final concentration of DMSO in the system was 0.2% v/v. After the 384-well plate was reacted at room temperature for 20 min, the OD value at 340 nm was read using an Envision microplate reader.
as §8
A blank group and a DMSO group were set in the experiment. […]

SMILES | Combined effect (DLD-1 BRCA2 (-/-)) | Combined effect (MDA-MB-436) | pIC50 [1] | pIC50 (DLD-1 parent cells) | pIC50 [2]
COc1ccc(Cl)cc1-c1cc(C)ncc1C(=O)Nc1nc2ncc(-c3ccc(C#N)cc3)nc2s1 [Compound I, 4-(5-Chloro-2-methoxyphenyl)-N-[6-(4-cyanophenyl)thiazolo[4,5-b]pyrazin-2-yl]-6-methylnicotinamide] | Synergistic | Synergistic | > 6.70 | ≤ 5.00 | > 7.00
COc1cnc(C)cc1-c1cc(C)ncc1C(=O)Nc1nc2ncc(-c3ccc(C#N)cc3)nc2s1 [Compound II, N-(6-(4-Cyanophenyl)thiazolo[4,5-b]pyrazin-2-yl)-5'-methoxy-2',6-dimethyl-[4,4'-bipyridinyl]-3-carboxamide] | Synergistic | Synergistic | > 6.70 | ≤ 5.00 | > 7.00
COc1ccc(Cl)cc1-c1cc(C)ncc1C(=O)Nc1nc2ncc(-c3ccc(C4CC4)cn3)nc2s1 [Compound III, 4-(5-Chloro-2-methoxyphenyl)-N-[6-(5-cyclopropylpyridin-2-yl)thiazolo[4,5-b]pyrazin-2-yl]-6-methylpyridine-3-carboxamide] | Synergistic |  | > 6.70 |  | > 7.00

— patent EP4744665A1, “COMBINATION OF POLQ INHIBITOR COMPOUND AND ANTI-CANCER THERAPEUTIC AGENT OR RADIOTHERAPY” (Simcere Zaiming Pharmaceutical Co., Ltd., priority 2023, dated 2025)
